Test results taken from patent US11235029B2, “Methods for treating heart failure with a TRKB agonist” (Temple University-Of The Commonwealth System of Higher …, priority 2017, dated 2022).

Key:
eNOS = assay: immunoblot of eNOS phosphorylated at serine 1177 in myocytes; type: cell-based; details: acute infusion, 100 nM
Source text: FIG. 8 depicts an immunoblot of eNOS phosphorylated at serine 1177 (^ser1177p-eNOS) and total eNOS (t-eNOS), taken from myocytes under control conditions (NS) and treated with LM22A-4.
Another possible mechanism of protection granted by TrkB stimulation is eNOS stimulation. […] Thus, it is plausible that TrkB agonists enhance eNOS signaling. FIG. 8 depicts an immunoblot of eNOS phosphorylated at serine 1177 (^ser1177p-eNOS) and total eNOS (t-eNOS), taken from myocytes under control conditions (NS) and treated with LM22A-4.

BDNF = BDNF immunoblot of lysates from isolated control myocytes; type: cell-based
[1] = test system: mice with myocardial infarction; assay: chronic infusion of TrkB agonist in mice with myocardial infarction (echocardiography, fibrosis, heart rate); type: in vivo
Method: FIG. 7, comprising FIG. 7A through FIG. 7C, depicts experimental results. FIG. 7A depicts rescue of cardiac defects following MI resulting from chronic infusion of LM22A-4, a specific agonist of TrkB (Massa S M, et a. J Clin Invest. 2010; 120:1774-85) at 0.2 mg/kg/day in saline, started 1 week after MI. […] FIG. 7B depicts cardiac tissue sections and quantitation of fibrosis observed in sham, MI, and MI+LM22A-4 groups. Compared to the MI group without treatment, fibrosis was lower in TrkB agonist-treated hearts.
FIG. 7A depicts rescue of cardiac defects following FIG. 7A depicts rescue of cardiac defects following MI resulting from chronic infusion of LM22A-4, a specific agonist of TrkB (Massa S M, et al. J Clin Invest. 2010; 120:1774-85), at 0.2 mg/kg/day in saline, started 1 week after MI.
Overall fibrosis was lower in TrkB agonist-treated hearts (FIG. 7B). FIG. 7B depicts cardiac tissue sections and quantitation of fibrosis observed in sham, MI, and MI+LM22A-4 groups. Compared to the MI group without treatment, fibrosis was lower in TrkB agonist-treated hearts.

[2] = 0.2 mg/kg/day in saline, chronic infusion started 1 week after MI, 4 weeks after severe MI

O=C(NCCO)c1cc(C(=O)NCCO)cc(C(=O)NCCO)c1 [LM22A-4, N,N′,N″-tris(2-hydroxyethyl)-1,3,5-benzenetricarboxamide]
eNOS activation by phosphorylation at serine 1177 (eNOS): activates eNOS
myocardial BDNF (immunoblot) (BDNF): induced myocardial BDNF
LVDs [1, 2]: 6.1±0.25 mm
ejection fraction (% EF) [1, 2]: 23.3±2.1%
fibrosis compared to the MI group without treatment ([1]; cardiac tissue sections, MI+LM22A-4 group): lower
heart rate ([1]; chronic infusion, MI mice): 494±17.8 bpm
